Source: patent US20180362559A1, “BONE ACTIVE NITROGEN-CONTAINING BISPHOSPHONATES WITH A NEAR INFRARED FLUORESCENT LABEL” (University of Southern California, priority 2015, published 2018)

How the values were obtained:
bone slice resorption = bone slice resorption assay; assay type: cell-based; conditions: in vitro, qualitative ranking
osteoclast (OC) = osteoclast (OC) inhibitory activity in vitro using mouse bone marrow cells (osteoclast culture); assay type: cell-based; conditions: for activity in osteoclast culture assay: in vitro, qualitative ranking; for OC numbers: mouse bone marrow cells, vehicle 239+/−17
Method: To determine if these AF-BP structural modifications improved the osteoclast (OC) inhibitory activity, these modifications were tested in vitro using mouse bone marrow cells.

SMILES | activity in bone slice resorption assay (bone slice resorption) | activity in osteoclast culture assay (osteoclast (OC)) | OC numbers (osteoclast (OC); 0.1 uM) | OC numbers (osteoclast (OC); 1 uM) | OC numbers (osteoclast (OC); 10 uM)
O=C(CCOCCOCCOCCOCCNC(=O)c1ccc(C(=O)O)c(-c2c3ccc(=O)cc-3oc3cc(O)ccc23)c1)NCC(O)C[n+]1cccc(CC(O)(P(=O)(O)O)P(=O)(O)O)c1 (centres unmarked) [Compound 22] | most active | most active | – | – | –
O=C(CCNC(=O)c1ccc(C(=O)O)c(-c2c3ccc(=O)cc-3oc3cc(O)ccc23)c1)NCC(O)C[n+]1cccc(CC(O)(P(=O)(O)O)P(=O)(O)O)c1 (centres unmarked) [Compound 14, 1-(3-(3-(4-carboxy-3-(6-hydroxy-3-oxo-3H-xanthen-9-yl)benzamido)propanamido)-2-hydroxypropyl)-3-(2-hydroxy-2,2-diphosphonoethyl)pyridin-1-ium] | most active | most active | – | – | –
O=C(CCOCCOCCOCCOCCNC(=O)c1ccc(-c2c3ccc(=O)cc-3oc3cc(O)ccc23)c(C(=O)O)c1)NCC(O)C[n+]1cccc(CC(O)(P(=O)(O)O)P(=O)(O)O)c1 (centres unmarked) [Compound 21, 1-(1-(3-carboxy-4-(6-hydroxy-3-oxo-3H-xanthen-9-yl)phenyl)-20-hydroxy-1,17-dioxo-5,8,11,14-tetraoxa-2,18-diazahenicosan-21-yl)-3-(2-hydroxy-2,2-diphosphonoethyl)pyridin-1-ium] | most active | most active | – | – | –
O=C(CCNC(=O)c1ccc(-c2c3ccc(=O)cc-3oc3cc(O)ccc23)c(C(=O)O)c1)NCC(O)C[n+]1cccc(CC(O)(P(=O)(O)O)P(=O)(O)O)c1 (centres unmarked) [Compound 13, 1-(3-(3-(3-carboxy-4-(6-hydroxy-1-oxo-3H-xanthen-9-yl)benzamido)propanamido)-2-hydroxypropyl)-3-(2-hydroxy-2,2-diphosphonoethyl)pyridin-1-ium] | most active | most active | – | – | –
O=P(O)(O)C(O)(Cc1cccnc1)P(=O)(O)O [RIS, (1-hydroxy-2-pyridin-3-ylethane-1,1-diyl)bis(phosphonic acid), reference compound] | – | – | 214+/−37 | 220+/−28 | 143+/−21
